In patent publication US20240299359A1, “PHARMACEUTICAL COMPOSITION FOR ANIMALS CONTAINING 5-HYDROXY-METHYLIMIDAZOLIDINE-2,4-DIONE COMPOUND AS ACTIVE INGREDIENT” (KYONGBO PHARM. CO., LTD., priority 2021, published 2024):
Where “and” joins values, the source holds several entries; their conditions need not be identical. Equal values may be shown once.

Test system: beagles
Assay: 13-week repeated oral toxicity: hematological test
Format: in vivo, beagle
Experimental: Fasting was conducted the day before administration (blood test date, pre), the 4th week (day 29) after administration, the 8th week (day 57) after administration, and the 13th week (day 92) after administration, and when the remaining feed was present in the feed container 3 hours after feeding on the day of fasting, it was removed.
All subjects were fasted for 16 hours and measurements were then performed pre (before administration), 4 weeks (day 29) after administration, 8 weeks (day 57) after administration, and 13 weeks (day 92) after administration. Within 3 hours after 2 to 3 ml of blood collected from the jugular vein of each subject was injected into a CBC bottle containing EDTA, RBC, HGB, HCT, RBC indices (MCV, MCH, MCHC), and platelet count and WBC differential count were measured using an automatic hematometer.

[1] = G3 500 mg/kg, repeated administration for 13 weeks, female, group mean
[2] = G3 500 mg/kg, repeated administration for 13 weeks, female, individual animals
[3] = G3 500 mg/kg, repeated administration for 13 weeks, male, group mean
[4] = G3 500 mg/kg, repeated administration for 13 weeks, male, individual animals
[5] = G4 1,000 mg/kg group, female (F10-F12, Mean), before administration (day 0)
[6] = G4 1,000 mg/kg group, female (F10-F12, Mean), before administration (day 0), mean
[7] = G4 1,000 mg/kg group, male (M10-M12, Mean), before administration (day 0)
[8] = G4 1,000 mg/kg group, male (M10-M12, Mean), before administration (day 0), mean
[9] = G4 1,000 mg/kg, repeated administration for 13 weeks, female, group mean
[10] = G4 1,000 mg/kg, repeated administration for 13 weeks, female, individual animals
[11] = G4 1,000 mg/kg, repeated administration for 13 weeks, male, group mean
[12] = G4 1,000 mg/kg, repeated administration for 13 weeks, male, individual animals

CN1C(=O)NC(=O)C1O (stereo not drawn) [KBP-001, 5-hydroxy-1-methylimidazolidine-2,4-dione] showed an MCH [1] of 23.5 pg, an MCHC [1] of 33.37 g/dL and an MCV [1] of 70.2 fL. For the same compound, the Retic [1] was 0.59%, the “WBC Differential Counting(%) Baso” value [1] was 0.43% and the “WBC Differential Counting(%) Eos” value [1] was 3.03%. The “WBC Differential Counting(%) Lymph” value [1] was 33.40%, the “WBC Differential Counting(%) Mono” value [1] was 4.37% and the “WBC Differential Counting(%) Neut” value [1] was 58.50%. The HCT [2] was 42.0% and 49.4% and 52.6%, the HGB [2] was 14.2 g/dL and 16.3 g/dL and 17.5 g/dL and the MCH [2] was 23.8 pg and 23.9 pg and 22.7 pg. For the same compound, the MCHC [2] was 33.7 g/dL and 33.1 g/dL and 33.3 g/dL, the MCV [2] was 70.4 fL and 72 fL and 68.2 fL and the Retic [2] was 0.84% and 0.40% and 0.53%. The “WBC Differential Counting(%) Baso” value [2] was 0.3% and 0.5% and 0.4%, the “WBC Differential Counting(%) Eos” value [2] was 3.2% and 2.8% and 3.1% and the “WBC Differential Counting(%) Lymph” value [2] was 37.9% and 30.3% and 32.0%. For the same compound, the “WBC Differential Counting(%) Mono” value [2] was 4.3% and 3.5% and 5.2%, the “WBC Differential Counting(%) Neut” value [2] was 62.4% and the HCT [3] was 48.10%. For the same compound, the HGB [3] was 16.27 g/dL, the MCH [3] was 23.8 pg and the MCHC [3] was 33.83 g/dL. For the same compound, the MCV [3] was 70.4 fL, the Retic [3] was 0.41% and the “WBC Differential Counting(%) Baso” value [3] was 1.10%. The “WBC Differential Counting(%) Eos” value [3] was 5.07%, the “WBC Differential Counting(%) Lymph” value [3] was 30.00% and the “WBC Differential Counting(%) Mono” value [3] was 7.23%. For the same compound, the “WBC Differential Counting(%) Neut” value [3] was 55.697%, the HCT [4] was 42.2% and 49.5% and 52.6% and the HGB [4] was 14.2 g/dL and 16.9 g/dL and 17.7 g/dL. For the same compound, the MCH [4] was 23.5 pg and 24.4 pg and 23.6 pg, the MCHC [4] was 33.7 g/dl (2×) and 34.1 g/dl and the MCV [4] was 70 fL and 71.5 fL and 69.9 fL. The Retic [4] was 0.54% and 0.46% and 0.23%, the “WBC Differential Counting(%) Baso” value [4] was 0.3% and 0.4% and 2.6% and the “WBC Differential Counting(%) Eos” value [4] was 3.9% and 7.5% and 3.8%. The “WBC Differential Counting(%) Lymph” value [4] was 23.4% and 27.1% and 39.5%, the “WBC Differential Counting(%) Mono” value [4] was 7.8% (2×) and 6.1% and the “WBC Differential Counting(%) Neut” value [4] was 64.3% and 56.8% and 46.8%. The HCT [5] was 47.7% and 44.4% and 48.4%, the HGB [5] was 16.1 g/dL and 14.9 g/dL and 16.2 g/dL and the MCH [5] was 22.9 pg and 23.2 pg and 22.2 pg. For the same compound, the MCHC [5] was 33.7 g/dL and 33.5 g/dL, the MCV [5] was 68 fL and 69.2 fL and 66.3 fL and the Retic [5] was 1.79% and 1.14% and 0.92%. The “WBC Differential Counting Baso” value [5] was 0.5% and 0.7% and 0.9%, the “WBC Differential Counting Eos” value [5] was 3.8% and 3.2% and 2.1% and the “WBC Differential Counting Lymph” value [5] was 30.9% and 31.1% and 43.6%. For the same compound, the “WBC Differential Counting Mono” value [5] was 4.6% and 4.0% and 5.5%, the “WBC Differential Counting Neut” value [5] was 59.3% and 60.5% and 47.3% and the HCT [6] was 39.40%. The HGB [6] was 13.17 g/dL, the MCH [6] was 18.4 pg and the MCHC [6] was 25.57 g/dL. For the same compound, the MCV [6] was 55.4 fL, the Retic [6] was 0.77% and the “WBC Differential Counting Baso” value [6] was 0.74%. The “WBC Differential Counting Eos” value [6] was 3.70%, the “WBC Differential Counting Lymph” value [6] was 28.17% and the “WBC Differential Counting Mono” value [6] was 4.91%. For the same compound, the “WBC Differential Counting Neut” value [6] was 46.85%, the HCT [7] was 45.1% and 46.8% and 43.2% and the HGB [7] was 15.0 g/dL and 15.6 g/dL and 14.5 g/dL. For the same compound, the MCH [7] was 22.4 pg and 22.5 pg and 21.7 pg, the MCHC [7] was 33.2 g/dL and 33.3 g/dL and 33.6 g/dL and the MCV [7] was 67.6 fL and 67.4 fL and 64.7 fL. For the same compound, the Retic [7] was 0.51% and 0.65% and 0.56%, the “WBC Differential Counting Baso” value [7] was 0.8% and 0.4% and 0.7% and the “WBC Differential Counting Eos” value [7] was 3.5% and 3.9% and 4.8%. For the same compound, the “WBC Differential Counting Lymph” value [7] was 34.8% and 31.7% and 35.5%, the “WBC Differential Counting Mono” value [7] was 6.5% and 7.8% and 4.5% and the “WBC Differential Counting Neut” value [7] was 53.8% and 55.9% and 54.0%. For the same compound, the HCT [8] was 39.19%, the HGB [8] was 13.07 g/dL and the MCH [8] was 18.2 pg. The MCHC [8] was 27.30 g/dL, the MCV [8] was 54.9 fL and the Retic [8] was 0.74%. For the same compound, the “WBC Differential Counting Baso” value [8] was 0.78%, the “WBC Differential Counting Eos” value [8] was 3.68% and the “WBC Differential Counting Lymph” value [8] was 28.23%. The “WBC Differential Counting Mono” value [8] was 5.10%, the “WBC Differential Counting Neut” value [8] was 46.56% and the HCT [9] was 41.40%. It also gave an HGB [9] of 14.00 g/dL, an MCH [9] of 23.3 pg and an MCHC [9] of 33.83 g/dL. For the same compound, the MCV [9] was 68.8 fL, the Retic [9] was 0.36% and the “WBC Differential Counting(%) Baso” value [9] was 0.40%. The “WBC Differential Counting(%) Eos” value [9] was 2.07%, the “WBC Differential Counting(%) Lymph” value [9] was 36.50% and the “WBC Differential Counting(%) Mono” value [9] was 4.57%. The “WBC Differential Counting(%) Neut” value [9] was 55.93%, the HCT [10] was 39.9% (2×) and 44.4% and the HGB [10] was 13.4 g/dL and 13.6 g/dL and 15.0 g/dL. For the same compound, the MCHC [10] was 33.5 g/dL and 34.2 g/dL and 33.8 g/dL, the MCV [10] was 69.5 fL and 68.2 fL and 68.7 fL and the Retic [10] was 0.53% and 0.27% and 0.28%. For the same compound, the “WBC Differential Counting(%) Baso” value [10] was 0.4% and 0.5% and 0.3%, the “WBC Differential Counting(%) Eos” value [10] was 3.1% and 0.8% and 2.3% and the “WBC Differential Counting(%) Lymph” value [10] was 31.4% and 42.6% and 35.8%. The “WBC Differential Counting(%) Mono” value [10] was 3.9% (2×) and 5.9%, the “WBC Differential Counting(%) Neut” value [10] was 60.7% and 51.8% and 55.3% and the HCT [11] was 46.33%. It also gave an HGB [11] of 15.80 g/dL, an MCH [11] of 23.4 pg and an MCHC [11] of 34.07 g/dL. The MCV [11] was 68.6 fL, the Retic [11] was 0.31% and the “WBC Differential Counting(%) Baso” value [11] was 0.43%. The “WBC Differential Counting(%) Eos” value [11] was 4.73%, the “WBC Differential Counting(%) Lymph” value [11] was 32.17% and the “WBC Differential Counting(%) Mono” value [11] was 6.07%. The “WBC Differential Counting(%) Neut” value [11] was 56.33%, the HCT [12] was 43.1% and 47.6% and 48.3% and the HGB [12] was 14.4 g/dL and 16.9 g/dL and 16.1 g/dL. The MCH [12] was 23.3 pg and 24.5 pg and 22.3 pg, the MCHC [12] was 33.3 g/dL and 35.5 g/dL and 33.4 g/dL and the MCV [12] was 70 fL and 69.1 fL and 66.8 fL. The Retic [12] was 0.27% and 0.32% and 0.33%, the “WBC Differential Counting(%) Baso” value [12] was 0.5% and 0.4% (2×) and the “WBC Differential Counting(%) Eos” value [12] was 4.0% and 4.4% and 5.8%. The “WBC Differential Counting(%) Lymph” value [12] was 33.7% and 29.5% and 33.2%, the “WBC Differential Counting(%) Mono” value [12] was 5.8% and 6.8% and 5.6% and the “WBC Differential Counting(%) Neut” value [12] was 55.7% and 58.6% and 54.7%.
